# Measured values published in publication PMC9814779, “A triple farnesoid X receptor and peroxisome proliferator-activated receptor α/δ activator reverses hepatic fibrosis in diet-induced NASH in mice” (Communications Chemistry, 2020).
# Read-outs that look alike come from different tables or passages of the source.
# Assays:
# Format in all cases: cell-based
# Design in all cases: Emax: dose or concentration left out as unconfirmed
# [1] = target: T1, human PPARα ligand-binding domain (Gal4 chimera) (Homo sapiens, UniProt Q07869); test: Gal4 hybrid reporter gene assay, PPARα; details: for EC50: EC50 [μM] PPARα; for Emax: read-out: max. rel. act. PPARα
# T1 construct: coding for the hinge region and LBD of the canonical isoform of the respective nuclear receptor; expressed in transfected cells; host or cells: HEK293T
# T1 sequence (Q07869 239-466 limits assumed): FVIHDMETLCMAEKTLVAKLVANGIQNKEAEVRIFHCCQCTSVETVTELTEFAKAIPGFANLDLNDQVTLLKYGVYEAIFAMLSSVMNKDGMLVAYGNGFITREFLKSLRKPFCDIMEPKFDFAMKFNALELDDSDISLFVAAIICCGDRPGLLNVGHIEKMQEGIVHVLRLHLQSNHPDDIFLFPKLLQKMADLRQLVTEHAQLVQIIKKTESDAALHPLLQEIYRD
# [2] = target: T2, human PPARγ ligand-binding domain (Gal4 chimera) (Homo sapiens, UniProt P37231); test: Gal4 hybrid reporter gene assay, PPARγ; details: for Emax: read-out: max. rel. act. PPARγ
# T2 construct: coding for the hinge region and LBD of the canonical isoform of the respective nuclear receptor; expressed in transfected cells; host or cells: HEK293T
# T2 sequence (P37231 238-503 limits assumed): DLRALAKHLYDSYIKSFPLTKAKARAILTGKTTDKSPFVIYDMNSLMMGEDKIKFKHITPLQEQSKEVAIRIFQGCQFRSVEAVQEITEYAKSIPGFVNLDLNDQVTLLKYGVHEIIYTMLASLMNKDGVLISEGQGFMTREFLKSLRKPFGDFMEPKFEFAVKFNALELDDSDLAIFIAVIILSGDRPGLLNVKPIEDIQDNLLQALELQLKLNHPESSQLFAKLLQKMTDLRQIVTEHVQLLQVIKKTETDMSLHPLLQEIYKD
# [3] = target: T3, human FXR:retinoid X receptor (RXR) heterodimer (Homo sapiens, UniProt Q96RI1); test: Full-length FXR reporter gene assay (BSEP response element) in HeLa cells; details: for Emax: read-out: max. rel. act. FXR
# T3 construct: pcDNA3-hFXR[32] and pSG5-hRXR[33] served for receptor overexpression in the full-length FXR assay; expressed in transfected cells; host or cells: HeLa
# T3 sequence (P19793 whole entry): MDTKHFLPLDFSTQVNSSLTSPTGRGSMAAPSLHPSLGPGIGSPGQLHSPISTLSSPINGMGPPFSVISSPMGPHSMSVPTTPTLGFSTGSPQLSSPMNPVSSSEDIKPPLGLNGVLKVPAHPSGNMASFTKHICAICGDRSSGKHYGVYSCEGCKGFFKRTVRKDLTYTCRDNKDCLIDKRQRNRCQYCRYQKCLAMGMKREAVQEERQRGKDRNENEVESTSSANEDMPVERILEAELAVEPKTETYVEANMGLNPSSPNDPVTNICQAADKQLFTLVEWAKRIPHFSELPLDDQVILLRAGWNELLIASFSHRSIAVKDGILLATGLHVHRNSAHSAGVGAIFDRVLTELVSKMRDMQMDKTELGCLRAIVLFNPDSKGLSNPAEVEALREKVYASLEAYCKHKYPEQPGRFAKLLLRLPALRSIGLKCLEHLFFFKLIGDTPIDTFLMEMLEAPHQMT
# T3 sequence (Q96RI1 whole entry): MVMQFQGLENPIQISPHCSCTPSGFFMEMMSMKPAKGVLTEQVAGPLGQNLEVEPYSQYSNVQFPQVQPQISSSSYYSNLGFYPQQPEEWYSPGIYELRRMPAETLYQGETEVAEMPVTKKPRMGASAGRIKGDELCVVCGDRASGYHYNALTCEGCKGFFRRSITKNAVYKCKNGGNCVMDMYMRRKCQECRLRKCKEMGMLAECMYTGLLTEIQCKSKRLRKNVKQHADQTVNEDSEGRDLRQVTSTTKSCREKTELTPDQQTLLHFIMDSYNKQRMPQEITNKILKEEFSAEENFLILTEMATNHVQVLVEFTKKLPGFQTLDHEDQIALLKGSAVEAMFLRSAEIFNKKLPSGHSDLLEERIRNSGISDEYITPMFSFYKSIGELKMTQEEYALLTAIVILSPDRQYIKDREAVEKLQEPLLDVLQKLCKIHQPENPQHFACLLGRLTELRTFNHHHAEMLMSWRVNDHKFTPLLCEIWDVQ
# [4] = target: T4, human PPARδ ligand-binding domain (Gal4 chimera) (Homo sapiens, UniProt Q03181); test: Gal4 hybrid reporter gene assay, PPARδ; details: for Emax: read-out: max. rel. act. PPARδ
# T4 construct: coding for the hinge region and LBD of the canonical isoform of the respective nuclear receptor; expressed in transfected cells; host or cells: HEK293T
# T4 sequence (Q03181 211-439 limits assumed): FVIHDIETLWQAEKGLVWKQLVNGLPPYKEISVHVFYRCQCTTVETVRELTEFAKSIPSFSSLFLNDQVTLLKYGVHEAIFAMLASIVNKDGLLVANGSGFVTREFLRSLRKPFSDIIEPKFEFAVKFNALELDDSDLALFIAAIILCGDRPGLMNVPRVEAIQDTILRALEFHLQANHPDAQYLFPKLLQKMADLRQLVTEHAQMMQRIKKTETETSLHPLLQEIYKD
# [5] = HeLa, mean ± SEM, n = 3, read-out: EC50 [μM] FXR
# [6] = EC50 [μM] PPARδ, HEK293T, mean ± SEM, n = 3
Compound,"EC50 ([1]; HEK293T, mean ± SEM, n = 3)",Emax [1],EC50 [2],Emax [2],"EC50 [3, 5]","EC50 [4, 6]",Emax [4],Emax ([3]; HeLa),EC50 [3],"EC50 ([2]; HEK293T, mean ± SEM, n = 3, read-out: EC50 [μM] PPARγ)","EC50 ([4]; HEK293T, mean ± SEM, n = 3, read-out: EC50 [μM] PPARδ)","EC50 [μM] PPARα ([1]; HEK293T, mean ± SEM, n = 3)","EC50 [μM] PPARγ ([2]; HEK293T, mean ± SEM, n = 3)","EC50 [μM] FXR ([3]; HeLa, mean ± SEM, n = 3)","EC50 [μM] PPARδ ([4]; HEK293T, mean ± SEM, n = 3)"
Cc1cccc(C(=O)Nc2cccc(CCC(=O)O)c2)c1NC(=O)c1ccc2ccccc2c1 [compound 16],6.2 ± 0.1 µM,31%,7.1 ± 1.3 µM,6%,> 10 µM,2.7 ± 0.3 µM,30%,–,–,–,–,–,–,–,–
Cc1ccc(C(=O)Nc2cccc(CCC(=O)O)c2)c(NC(=O)c2ccc3ccccc3c2)c1 [compound 17],1.7 ± 0.2 µM,67%,1.4 ± 0.3 µM,21%,1.5 ± 0.1 µM,0.17 ± 0.02 µM,34%,21%,–,–,–,–,–,–,–
Cc1ccc(NC(=O)c2ccc3ccccc3c2)c(C(=O)Nc2cccc(CCC(=O)O)c2)c1 [compound 18],0.8 ± 0.02 µM,25%,3.3 ± 0.1 µM,23%,> 10 µM,0.21 ± 0.01 µM,14%,–,–,–,–,–,–,–,–
Cc1cccc(NC(=O)c2ccc3ccccc3c2)c1C(=O)Nc1cccc(CCC(=O)O)c1 [compound 19],7.4 ± 0.4 µM,15%,11 ± 2 µM,2.5%,> 10 µM,6.3 ± 0.9 µM,20%,–,–,–,–,–,–,–,–
O=C(O)CCc1cccc(NC(=O)c2ccc(Cl)cc2NC(=O)c2ccc3ccccc3c2)c1 [compound 20],3 ± 0.1 µM,16%,1.4 ± 0.1 µM,6%,> 10 µM,1.9 ± 0.2 µM,16%,–,–,–,–,–,–,–,–
O=C(O)CCc1cccc(NC(=O)c2ccc(O)cc2NC(=O)c2ccc3ccccc3c2)c1 [compound 21],5.3 ± 0.5 µM,54%,2.3 ± 0.3 µM,20%,4.5 ± 0.1 µM,2.4 ± 0.1 µM,34%,16%,–,–,–,–,–,–,–
COc1ccc(C(=O)Nc2cccc(CCC(=O)O)c2)c(NC(=O)c2ccc3ccccc3c2)c1 [compound 22],0.3 ± 0.04 µM,43%,1.3 ± 0.1 µM,27%,11 ± 3 µM,0.06 ± 0.01 µM,32%,22%,–,–,–,–,–,–,–
O=C(O)CCc1cccc(NC(=O)c2ccc(OC(F)(F)F)cc2NC(=O)c2ccc3ccccc3c2)c1 [compound 23],1.1 ± 0.3 µM,31%,1 ± 0.2 µM,15%,–,0.38 ± 0.06 µM,30%,12%,1.1 ± 0.1 µM,–,–,–,–,–,–
O=C(O)CCc1cccc(NC(=O)c2cc(Cl)ccc2NC(=O)c2ccc3ccccc3c2)c1 [compound 25],0.9 ± 0.2 µM,42%,6 ± 1 µM,26%,2.6 ± 0.4 µM,0.28 ± 0.03 µM,17%,12%,–,–,–,–,–,–,–
O=C(O)CCc1cccc(NC(=O)c2cc(O)ccc2NC(=O)c2ccc3ccccc3c2)c1 [compound 26],8.9 ± 0.8 µM,28%,13 ± 1 µM,9%,> 10 µM,10 ± 2 µM,24%,–,–,–,–,–,–,–,–
COc1ccc(NC(=O)c2ccc3ccccc3c2)c(C(=O)Nc2cccc(CCC(=O)O)c2)c1 [compound 27],0.23 ± 0.04 µM,53%,2 ± 0.1 µM,15%,> 10 µM,0.36 ± 0.01 µM,23%,–,–,–,–,–,–,–,–
O=C(O)CCc1cccc(NC(=O)c2cc(OC(F)(F)F)ccc2NC(=O)c2ccc3ccccc3c2)c1 [compound 28],0.21 ± 0.02 µM,54%,1.1 ± 0.2 µM,18%,> 10 µM,0.1 ± 0.01 µM,19%,–,–,–,–,–,–,–,–
O=C(O)CCc1cccc(NC(=O)c2cc3c(cc2NC(=O)c2ccc4ccccc4c2)OCO3)c1 [compound 29],0.46 ± 0.03 µM,25%,0.9 ± 0.3 µM,15%,2.9 ± 0.6 µM,0.4 ± 0.1 µM,31%,14%,–,–,–,–,–,–,–
O=C(O)CCc1cccc(NC(=O)c2ccccc2NC(=O)c2ccc(-c3ccccc3)cc2)c1 [compound 30],> 30 µM,–,–,16 ± 10%,1.3 ± 0.2 µM,–,38%,33%,–,1.6 ± 0.2 µM,2.5 ± 0.5 µM,–,–,–,–
O=C(O)CCc1cccc(NC(=O)c2ccccc2NC(=O)c2ccc(-c3ccco3)cc2)c1 [compound 31],1.8 ± 0.3 µM,22%,2.2 ± 0.1 µM,9%,5.4 ± 0.1 µM,0.2 ± 0.01 µM,43%,23%,–,–,–,–,–,–,–
O=C(O)CCc1cccc(NC(=O)c2ccccc2NC(=O)c2ccc(-c3cccs3)cc2)c1 [compound 33],1.5 ± 0.1 µM,27%,1.4 ± 0.2 µM,11%,1.7 ± 0.4 µM,0.64 ± 0.06 µM,35%,21%,–,–,–,–,–,–,–
O=C(O)CCc1cccc(NC(=O)c2ccccc2NC(=O)c2ccc(-c3ccsc3)cc2)c1 [compound 34],1.7 ± 0.1 µM,32%,1.3 ± 0.2 µM,17%,0.6 ± 0.1 µM,1.6 ± 0.3 µM,59%,18%,–,–,–,–,–,–,–
O=C(O)CCc1cccc(NC(=O)c2ccccc2NC(=O)c2ccc(-c3ccon3)cc2)c1 [compound 35],8 ± 0.4 µM,11%,5.8 ± 0.8 µM,30%,6.8 ± 0.6 µM,5.6 ± 0.4 µM,29%,32%,–,–,–,–,–,–,–
O=C(O)CCc1cccc(NC(=O)c2ccccc2NC(=O)c2ccc(-c3cnoc3)cc2)c1 [compound 36],–,–,–,–,–,–,–,–,–,–,–,Unstable,Unstable,Unstable,Unstable
O=C(O)CCc1cccc(NC(=O)c2ccccc2NC(=O)c2ccc(-c3cocn3)cc2)c1 [compound 37],20 ± 1 µM,36%,6 ± 1 µM,15%,6.9 ± 0.3 µM,12 ± 1 µM,52%,41%,–,–,–,–,–,–,–
